# Test results taken from paper PMC4726260, “Combined ligand-observe ^19F and protein-observe ^15N,^1H-HSQC NMR suggests phenylalanine as the key Δ-somatostatin residue recognized by human protein disulfide isomerase” (Scientific Reports, 2016).
# Non-standard residues stand in square brackets, D forms with d. Residues, ends and D or L forms follow the SMILES beside them. No end group written: not given here. Phe(4-F) = N[C@@H](Cc1ccc(F)cc1)C(=O)O
# Key:
# [1] = target: T1, hPDI b’x (Homo sapiens, UniProt P07237); assay: Ligand-observe 19F NMR titration (chemical shift change vs b’x concentration, Kd); type: binding; settings: 310 K
# T1 construct: There is also a short 19 amino acid x-linker region between the b’ and a’ domains; made in house; host or cells: E. coli
# T1 sequence (P07237 230-368 limits assumed): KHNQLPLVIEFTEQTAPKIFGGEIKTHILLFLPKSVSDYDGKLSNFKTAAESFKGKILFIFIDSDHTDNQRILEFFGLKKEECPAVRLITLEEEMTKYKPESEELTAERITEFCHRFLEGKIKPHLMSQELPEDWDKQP
# Experimental: (§1) NMR titrations were carried out by collecting ^19F NMR spectra (at a constant peptide concentration of 0.15 mM) and ^15N,^1H-HSQC spectra (at a constant protein concentration of 0.25 mM). This provided binding perspectives from both peptide and protein. ^19F NMR data provided precise curve fits of equation (1) with Kd values in agreement with those obtained by ^15N NMR (Table 1). […] Triple fluorinated peptide spectra are shown in Fig. 4 with example Kd graphs plotted using chemical shift change against b’x concentration (see Supplementary Information SV for single fluorinated peptide ^19F spectra).
# (§2) All spectra were collected using a 4-channel, 5-amplifier Bruker Avance III 14.1 T (600 MHz ^1H) NMR spectrometer equipped with a 5 mm QCI-F cryoprobe. ^15N,^1H-HSQC spectra were acquired over 45 min on samples containing 0.25 mM b’x and varying peptide concentrations. Each ^19F 1D spectrum was acquired over 60 min on samples of 0.15 mM Δ-som with varying protein concentration. Ratios of the variable:static components in each experiment were 1:4, 1:2, 1:1, 1.5:1, 2:1 and 2.5:1. All samples were run at 310 K in 20 mM sodium phosphate buffer (pH 7.0) containing 50 mM NaCl, 5% D6-DMSO, 5% ^2H2O and 0.05% sodium azide. 1D NMR data were processed using Bruker Topspin software and referenced using the position of trifluoroacetic acid (−76.55 ppm). 2D data were processed using NMRPipe[31] and analysed using the CCPN Analysis software package.
# (§3) where Δobs is the observed chemical shift perturbation, Δmax the maximum chemical shift perturbation and [P] and [L] the protein and ligand concentrations respectively. This equation was used to fit both ^15N and ^19F NMR data using KaleidaGraph 4.0 (Synergy Software). Standard errors from the Levenberg-Marquardt fitting routine were taken as the uncertainties. We determined Kd from ^15N,^1H HSQC NMR data using two approaches: First, by simultaneous fitting all shifts which are averaged to create a single plot, which is considered an accurate method of Kd determination. Second, we tracked and fitted each peak individually to the equation above and averaged all results and errors across all fits. […] This hPDI system creates Kd values with shallow binding curve where errors where average chemical shifts reduce fitting accuracy and individual fitting produces higher resoltuion. Therefore, we used Kd values from the averaged individual fit method within this paper to report smaller errors.
# [2] = target: T1, hPDI b’x; assay: Protein-observe 15N,1H-HSQC NMR titration (chemical shift perturbation, Kd); type: binding; settings: for Kd: read-out: Dissociation constant (Kd), PROTEIN 15N/1H Tracked; for Binding classification from 15N,1H-HSQC titration series: 310 K, pH 7.0, resonance shifts throughout the titration
# Experimental: as §1, §2
# Amide chemical shifts were calculated in Hz as √[(0.6Δ^1H)^2 + (Δ^15N)^2]. Dissociation constants (Kd) for each shifting peak were calculated by plotting the chemical shift perturbation (Hz) against ligand concentration (mM) and fitting the curve to the equation: […]
# as §3
# [3] = target: Δ-somatostatin (Homo sapiens) (UniProt P61278); assay: 19F NMR; settings: cited from earlier work
# [4] = target: human protein disulphide isomerase (hPDI) b'x fragment (human) (UniProt P07237); assay: SEC; gel filtration elution profile of 15N labelled b'x (step of the purification); absorbance at 280 nm
# [5] = target: human protein disulphide isomerase (hPDI) fragment b'x (human); assay: NMR titration; protein-observed 15N,1H-HSQC; 0.25 mM 15N b'x constant, peptide titrated (ratios 1:4 to 2.5:1); 310 K; 20 mM sodium phosphate pH 7.0, 50 mM NaCl, 5% D6-DMSO, 5% 2H2O, 0.05% sodium azide; Kd is the average of the fits of the individual shifting peaks
# [6] = 19F 1D NMR, constant 0.15 mM singly fluorinated peptide, varying b’x, 20 mM sodium phosphate pH 7.0, 50 mM NaCl, 5% D6-DMSO, ± standard error of fit, read-out: Dissociation constant (Kd), LIGAND 19F Tracked (Single-F)
# [7] = 15N,1H-HSQC, constant 0.25 mM 15N b’x, varying peptide (ratios 1:4 to 2.5:1), 310 K (37 °C), 20 mM sodium phosphate pH 7.0, 50 mM NaCl, 5% D6-DMSO, average of individual residue fits, ± standard error of Levenberg-Marquardt fit
molecule,measurement,setting,value
C[C@H](N)C(=O)NCC(=O)N[C@@H](CO)C(=O)N[C@@H](CCCCN)C(=O)N[C@@H](CC(N)=O)C(=O)N[C@@H](Cc1ccc(F)cc1)C(=O)N[C@@H](Cc1ccccc1)C(=O)N[C@@H](Cc1c[nH]c2ccccc12)C(=O)N[C@@H](CCCCN)C(=O)N[C@H](C(=O)N[C@@H](Cc1ccccc1)C(=O)N[C@H](C(=O)N[C@@H](CO)C(=O)N[C@@H](CO)C(=O)O)[C@@H](C)O)[C@@H](C)O [F1 Δ-som] (H-AGSKN[Phe(4-F)]FWKTFTSS-OH),Kd,[1]; [6],109 ± 13 µM
same,Kd,[2]; [7],61 ± 47 µM
"C[C@H](N)C(=O)NCC(=O)N[C@@H](CO)C(=O)N[C@@H](CCCCN)C(=O)N[C@@H](CC(N)=O)C(=O)N[C@@H](Cc1ccc(F)cc1)C(=O)N[C@@H](Cc1ccc(F)cc1)C(=O)N[C@@H](Cc1c[nH]c2ccccc12)C(=O)N[C@@H](CCCCN)C(=O)N[C@H](C(=O)N[C@@H](Cc1ccc(F)cc1)C(=O)N[C@H](C(=O)N[C@@H](CO)C(=O)N[C@@H](CO)C(=O)O)[C@@H](C)O)[C@@H](C)O [F1,2,3 Δ-som] (H-AGSKN[Phe(4-F)][Phe(4-F)]WKT[Phe(4-F)]TSS-OH)",Kd,"[1]; 19F 1D NMR, F1 (Phe6) resonance of triple fluorinated peptide, 0.15 mM peptide, varying b’x, pH 7.0, ± standard error of fit, read-out: Dissociation constant (Kd), LIGAND 19F Tracked (Triple-F), F1 peak",108 ± 15 µM
same,Kd,"[1]; 19F 1D NMR, F2 (Phe7) resonance of triple fluorinated peptide, 0.15 mM peptide, varying b’x, pH 7.0, ± standard error of fit, read-out: Dissociation constant (Kd), LIGAND 19F Tracked (Triple-F), F2 peak",33 ± 11 µM
same,Kd,"[1]; 19F 1D NMR, F3 (Phe11) resonance of triple fluorinated peptide, 0.15 mM peptide, varying b’x, pH 7.0, ± standard error of fit, read-out: Dissociation constant (Kd), LIGAND 19F Tracked (Triple-F), F3 peak",45 ± 14 µM
same,Kd,"[1]; mean of the Kd from each monitored 19F resonance in the triple fluorinated peptide, 0.15 mM peptide, pH 7.0, read-out: Dissociation constant (Kd), LIGAND 19F Tracked (Triple-F), mean Kd",62 ± 13 µM
same,Kd,[2]; [7],48 ± 35 µM
C[C@H](N)C(=O)NCC(=O)N[C@@H](CO)C(=O)N[C@@H](CCCCN)C(=O)N[C@@H](CC(N)=O)C(=O)N[C@@H](Cc1ccccc1)C(=O)N[C@@H](Cc1ccc(F)cc1)C(=O)N[C@@H](Cc1c[nH]c2ccccc12)C(=O)N[C@@H](CCCCN)C(=O)N[C@H](C(=O)N[C@@H](Cc1ccccc1)C(=O)N[C@H](C(=O)N[C@@H](CO)C(=O)N[C@@H](CO)C(=O)O)[C@@H](C)O)[C@@H](C)O [F2 Δ-som] (H-AGSKNF[Phe(4-F)]WKTFTSS-OH),Kd,[1]; [6],27 ± 3 µM
same,Kd,[2]; [7],51 ± 30 µM
C[C@H](N)C(=O)NCC(=O)N[C@@H](CO)C(=O)N[C@@H](CCCCN)C(=O)N[C@@H](CC(N)=O)C(=O)N[C@@H](Cc1ccccc1)C(=O)N[C@@H](Cc1ccccc1)C(=O)N[C@@H](Cc1c[nH]c2ccccc12)C(=O)N[C@@H](CCCCN)C(=O)N[C@H](C(=O)N[C@@H](Cc1ccc(F)cc1)C(=O)N[C@H](C(=O)N[C@@H](CO)C(=O)N[C@@H](CO)C(=O)O)[C@@H](C)O)[C@@H](C)O [F3 Δ-som] (H-AGSKNFFWKT[Phe(4-F)]TSS-OH),Kd,[1]; [6],97 ± 21 µM
same,Kd,[2]; [7],84 ± 53 µM
"AGSKNAAWKTATSS [Phe6,7,11 → Ala Δ-som, triple Phe → Ala peptide of Δ-som]","Binding classification from 15N,1H-HSQC titration series",[2]; 0.25 mM 15N b’x,non-binding
same,Chemical shifts identified at the end point of the titration,"[2]; 15N,1H-HSQC, 0.25 mM 15N b’x, shifts did not map to the ligand binding site",< 0.01 ppm
same,"Dissociation constant (Kd), PROTEIN 15N/1H Tracked",[2]; [7],Non binding
"AGSKNAAWKTFTSS [Phe6,7 → Ala Δ-som]",Kd,[2]; [7],242 ± 177 µM
"AGSKNAFWKTATSS [Phe6,11 → Ala Δ-som]",Kd,[2]; [7],587 ± 174 µM
AGSKNAFWKTFTSS [Phe6 → Ala Δ-som],Kd,[2]; [7],199 ± 100 µM
"AGSKNFAWKTATSS [Phe7,11 → Ala Δ-som]",Kd,[2]; [7],412 ± 219 µM
AGSKNFAWKTFTSS [Phe7 → Ala Δ-som],Kd,[2]; [7],123 ± 96 µM
AGSKNFFWKTATSS [Phe11 → Ala Δ-som],Kd,[2]; [7],261 ± 101 µM
"AGSKNFFWKTFTSS [Δ-som, Δ-somatostatin]",Kd,[2]; [7],103 ± 47 µM
PDI b'x (from UniProt P07237),Kd,[3],23 µM
"RERQIKKQTALVELV [helix-28 from human serum albumin, helix-28 from human serum albumin (…), reference compound]","Binding classification from 15N,1H-HSQC titration series",[2]; 0.25 mM 15N b’x,non-binding
human protein disulphide isomerase (hPDI) b'x fragment (from UniProt P07237 18-508) (domain or fragment),stoichiometry N,[4],2
AGSKNFFWKTFTSS [Δ-somatostatin],Kd,[5],103 µM
AGSKNAFWKTFTSS [Phe6 → Ala Δ-som],Kd,[5],199 µM
AGSKNFAWKTFTSS [Phe7 → Ala Δ-som],Kd,[5],123 µM
AGSKNFFWKTATSS [Phe11 → Ala Δ-som],Kd,[5],261 µM
"AGSKNAAWKTFTSS [Phe6,7 → Ala Δ-som]",Kd,[5],242 µM
"AGSKNAFWKTATSS [Phe6,11 → Ala Δ-som]",Kd,[5],587 µM
"AGSKNFAWKTATSS [Phe7,11 → Ala Δ-som]",Kd,[5],412 µM
AGSKN[Phe(4-F)]FWKTFTSS [F1 Δ-som],Kd,[5],61 µM
AGSKNF[Phe(4-F)]WKTFTSS [F2 Δ-som],Kd,[5],51 µM
AGSKNFFWKT[Phe(4-F)]TSS [F3 Δ-som],Kd,[5],84 µM
"AGSKN[Phe(4-F)][Phe(4-F)]WKT[Phe(4-F)]TSS [F1,2,3 Δ-som]",Kd,[5],48 µM
